These results are taken from patent US20120251495A1, “PTERIN BASED THERAPIES FOR INFLAMMATORY CONDITIONS” (priority 2008, published 2012).

The test system of assay [1] is plasma cytokines. Briefly: Plasma cytokine levels (multiplex and single ELISA kits), 2nd experiment. Type of assay: in vivo, athymic nude mice. Conditions: for IL-5: limit of detection 3.0; for IL-6: limit of detection 3.9; for IL-1β: limit of detection 4.1; for IL-10: limit of detection 24.6. As for the experimental part:
Cytokine levels in EDTA plasma from the mice in the 2nd experiment were measured at the UCSD Core Laboratory (San Diego, Calif.) using a multiplex assay kit for IL-1β, IL-2, IL-4, IL-5, IL-10, IL-12, IFN-γ, TNF-α and single ELISA kits for IL-6 and TGF-β1 by R&D Systems. […] For both the 1st and 2nd experiments, those measured cytokine values falling below the limits of detection were set to the higher assay limit for the purposes of the subsequent statistical analyses, and recorded as n.d. (not detectable) in Tables 1 through 3.

Assay [2] concerns MDA-MB-231 human breast tumor xenographs. Briefly: Antitumor efficacy in nude mice with MDA-MB-231 xenographs, 2nd experiment. The format is in vivo, athymic nude mice. Conditions: (1:2) 25, DCP 23 and 69, calcium chloride dihydrate 4.2 mg/kg/day.
Procedure: In the 2nd experiment, twenty-nine athymic nude, also purchased from Harlan Sprague Dawley, Inc. (Indianapolis, Ind.), were each injected subcutaneously with 10×10^6 MDA-MB-231 cancer cells into the right flank. When tumors reached 3-5 mm in size, the mice were divided into five treatment groups of five each and a control group of four mice. […] All the other mice in the 2nd experiment persisted ≧43 days without complications. Experimental groups were treated by oral gavage once daily with the indicated test suspensions or solutions.
The test system of assay [3] is MDA-MB-231 xenograph tumors. Briefly: Combined analysis of DCP + control mice: Day 42,43 relative tumor volume and DCP/APCP. Conditions: 25 mg/(kg day); Day 42,43 relative tumor volume; combined data. Type of assay: in vivo, nude mice. As for the experimental part: Standard ANOVA models for group effects, curve fitting, and stepwise regression analyses were carried out using SPSS Graduate Pack 15.0 for Windows (2006), with p<0.05 used to determine significance.
Table 7 gives the plasma cytokine and relative tumor volume Spearman rank order correlations for the 12 DCP+ control mice (Control [n=3; from 1st experiment]; 23 mg/(kg d) DCP [n=5; from 2nd experiment]; and 69 mg/(kg d) DCP [n=4; from 2nd experiment]).
To further determine significant causal and correlational linkages among DCP dosage, plasma cytokine changes, and relative tumor volume, the following curve fitting analyses were carried out with the 12 DCP+ control mice. First, plotting DCP versus Day 42,43 Relative Tumor Volume yielded a significant quadratic relationship (FIG. 11). Second, curve fitting each cytokine versus Day 42,43 Relative Tumor Volume found no significant linear relationship and only one significant quadratic relationship, i.e., with IL-12 (p=0.004; FIG. 12). Third, plotting DCP versus IL-12 yielded a weakly significant quadratic relationship (p=0.048; FIG. 13).
Substantially more significant analogous plots were generated by first carrying out the Table 8 stepwise regression analysis which derived the DCP antitumor plasma cytokine pattern (DCP/APCP), shown to be a more significant cytokine composite measure than IL-12 taken alone. The Table 8 stepwise regression analysis of the cytokine data from the 12 DCP+ control mice allowed for the calculation of DCP/APCP scores for each mouse. These DCP/APCP scores are plotted versus DCP dosage in […], which illustrates the significant quadratic dose-response relationships of DCP versus the derived plasma DCP/APCP composite measure. From this figure the estimated optimum dosage of DCP for maximum tumor growth inhibition is 42 mg/(kg day), while the estimated optimum dosage for maximum DCP/APCP induction is 44 mg/(kg day).

The subject of assay [4] is plasma cytokines. Briefly: Plasma cytokine levels by ELISA (LINCOplex), 1st experiment. The format is in vivo, athymic nude (nu/nu) mice. Conditions: Table 4, 21 mg/kg/d. As for the experimental part: Cytokine levels in EDTA plasma from the mice in the 1st experiment were determined by ELISA assay at Alta Analytical Laboratories (San Diego, Calif.) using a LINCOplex Kit (Linco Research). Tryptophan (Trp) and kynurenine (Kyn) concentrations were measured from EDTA plasma samples by high pressure liquid chromatography (HPLC) using 3-nitro-L-tyrosine as the internal standard (Widner et al., 1997). To estimate IDO activity, the kynurenine to tryptophan ratio (Kyn/Trp) was calculated and expressed as μmol kynurenine/mmol tryptophan (Wirleitner, 2003). The values from five mice in the 1st experiment are not included in the summary statistics given in Table 1 for the following reasons. One mouse from each of the four treatment groups was used to test the effects of mega dosing, i.e., with (1:4 mol:mol) calcium pterin at 100 mg/kg/day after Day 60 of treatment, and are excluded. Also excluded was one mouse from the (1:4 mol:mol) calcium pterin (7 mg/kg/day) group which expired suddenly a few days before blood was collected. Cytokine measurements <3.2 pg/ml are reported as n.d. (not detectable) because the standard curves used in the ELISA assays were not calibrated below that level.
Cytokine levels in EDTA plasma from the mice in the 1st experiment were determined by ELISA assay at Alta Analytical Laboratories (San Diego, Calif.) using a LINCOplex Kit (Linco Research).
Cytokine levels in EDTA plasma from the mice in the 2nd experiment were measured at the UCSD Core Laboratory (San Diego, Calif.) using a multiplex assay kit for IL-1β, IL-2, IL-4, IL-5, IL-10, IL-12, IFN-γ, TNF-α and single ELISA kits for IL-6 and TGF-β1 by R&D Systems. EDTA plasma samples from two of the three ungavaged controls were lost due to handling error. For both the 1st and 2nd experiments, those measured cytokine values falling below the limits of detection were set to the higher assay limit for the purposes of the subsequent statistical analyses, and recorded as n.d. (not detectable) in Tables 1 through 3.
(In an ELISA, binding on a coated surface is turned into a signal by an enzyme label.)

Assay [5] concerns MDA-MB-231 human breast tumor xenographs. Briefly: Antitumor efficacy in nude mice with MDA-MB-231 xenographs, 1st experiment. The format is in vivo, athymic nude (nu/nu) mice. Conditions: 21 mg/kg/day. As for the experimental part:
The aims of the 1st experiment were to determine a dose-response curve for the (1:4 mol:mol) calcium pterin suspension, to compare the antitumor activity of this suspension to pterin alone (pterin control), and to test the effect of CaPterin mega-dosing at 100 mg/kg/day. Antitumor efficacy was evaluated in nude mice with MDA-MB-231 human tumor xenographs by Perry Scientific (San Diego, Calif.). In the 1st experiment, twenty-three athymic nude (nu/nu) female mice, ages 3-4 weeks, were purchased from Harlan Sprague Dawley, Inc. (Indianapolis, Ind.). 5×10^6 MDA-MB-231 cancer cells were injected subcutaneously into the right flank of each mouse. When tumors reached 3-5 mm in size, twenty mice were divided into four treatment/control groups of five mice each. The four treatment groups were: (1:4 mol:mol) calcium pterin (7 mg/kg/day); pterin (21 mg/kg/day); (1:4 mol:mol) calcium pterin (21 mg/kg/day); and sterile water control. Two mice with outlying tumor sizes or non-tumor takes were excluded shortly after treatment began: one from the pterin group and one from the control group. […] Only one outlier persisted >4 days, for 14 days. Also excluded from the metabolic analysis in the 1st experiment was one mouse from each of the four experimental groups mega-dosed by oral gavage with 100 mg/kg/day CaPterin for tip to 31 days to test for toxicity. All the other mice in the 1st experiment persisted ≧60 days without complications.
The control mice in the 1st experiment were treated with sterile water while the control mice in the 2nd experiment were untreated to evaluate the effect of mouse handling and gavaging upon tumor growth. Daily dosing was for 7 days per week. Animals were restrained but not anesthetized for oral dosing. Tumors were measured twice weekly with calipers and body weights taken twice weekly on the day of tumor measurements. Blood was collected from all animals via cardiac puncture at termination (after 70 to 98 days of treatment) and processed to EDTA plasma for analysis. Tumor size measurements for the control group in the 2nd experiment on days 4 and 7 were missed due to a technical oversight.
The MDA-MB-231 human breast tumor cell lines were supplied by SRI International (Menlo Park, Calif.) and propagated using standard in vitro cell expansion methods. Briefly, cells were grown in L-15 media from Gibco (Cat. No. 11415-064) supplemented with 2 mM L-Glutamine and 10% Fetal Bovine Serum (FBS). The cells were cultured in an incubator with 5% CO2, 37.5° C., and 80% humidity. Cells were harvested with 0.25% (w/v) Trypsin-0.03% (w/v) EDTA solution. Cells were prepared for injection by standard methods to appropriate concentrations. Animals were temporarily restrained but not anesthetized for the inoculation of the tumor cells. Animals were subcutaneously injected with the tumor cells in a 100-200 μl volume.
Each animal was individually tracked for tumor growth by external caliper measurements of protruding tumor. Primary tumor sizes were measured using calipers and an approximate tumor volume calculated using the formula 1/2 (a×b^2), where b was the smaller of two perpendicular diameters.
For each group, the mean and standard error of the mean (SEM) of the ratio V/Vo, Relative Tumor Volume (RTV), were plotted as a function of treatment time after inoculation. V0 was the tumor volume at Day 0, when treatment began.

The mark [6] stands for this setting: 2nd experiment, CaCl2 group, 4.2 mg/kg/day.
Setting [7] is: 2nd experiment, CaCl2 group, 4.2 mg/kg/day, limit of detection 3.2.
Where [8] appears, read: 2nd experiment, 25 mg/kg/d, limit of detection 3.2.

`O.O.[Ca+2].[Cl-].[Cl-]` [CaCl2•2H2O, calcium chloride dihydrate, reference compound]: the “plasma IL-12 versus control (FIG. 10)” value with plasma cytokines [1] (4.2 mg/(kg day)) is listed as “significantly elevated”. In addition, in the assay on plasma cytokines [1] (setting [6]), the IL-5 is 10.3 ± 2.4 pg/mL, the IL-6 was determined as 44.4 ± 15.4 pg/mL, the IL-1β was 6.4 ± .9 pg/mL and the IL-10 was found to be 26.5 ± 1.9 pg/mL. In the assay with plasma cytokines [1] (setting [7]), the IFN-γ came out at 9.7 ± 3.3 pg/mL, the IL-4 is 3.6 ± .3 pg/mL and the IL-12 is 904.9 ± 156.9 pg/mL. Also, the IL-2 in the assay on plasma cytokines [1] (2nd experiment, CaCl2 group, 4.2 mg/kg/day, limit of detection 12.6) is 12.7 ± .13 pg/mL. The same compound gave a TGF-β1 in the assay with plasma cytokines [1] (2nd experiment, CaCl2 group, 4.2 mg/kg/day, limit of detection 31.2) of 74.3 ± 35.0 pg/mL. Moreover, the “MDA-MB-231 xenograph growth inhibition” value in assay [2] is given as “significantly inhibit”.
For (1:2 mol:mol) calcium pterin, in the assay with plasma cytokines [1] (2nd experiment, 25 mg/kg/d), the IL-5 was 4.4 ± .9 pg/mL, the IL-6 was determined as 31.6 ± 9.2 pg/mL, the IL-1β is 4.9 ± .5 pg/mL and the IL-10 is 30.2 ± 5.6 pg/mL. In the assay on plasma cytokines [1] (setting [8]), this compound displayed an IFN-γ of 16.1 ± 12.9 pg/mL and an IL-12 of 315.2 ± 71.0 pg/mL. Moreover, the “increases in plasma IL-12 (FIG. 10)” value in the assay with plasma cytokines [1] (at the dosages tested) is recorded as “lower, non-significant increases”. Besides, the “MDA-MB-231 xenograph growth inhibition” value in assay [2] is “significantly inhibit”. Also, in assay [3], the “tumor growth inhibition relative to controls (FIG. 9)” value was “significant tumor growth inhibition”.
In the case of `Nc1nc2nccnc2c(=O)[nH]1` [Pterin, 2-amino-4(3H)-pteridinone], in the assay with plasma cytokines [4] (limit of detection 3.2), the IL-12 is 48.5 ± 45.3 pg/mL and the TNF-α stood at 9.0 ± 3.7 pg/mL. The compound also yielded an IL-1β with plasma cytokines [4] (limit of detection 4.1) of 64.6 ± 60.4 pg/mL. Further, the IL-6 with plasma cytokines [4] (plasma at sacrifice, limit of detection 3.9) was 87.4 ± 11.0 pg/mL. Moreover, the “antitumor activity (tumor growth vs control)” value in assay [5] is “no antitumor activity”.
